In patent US11702422B2, “Imidazopyridazines as modulators of IL-17” (Janssen Pharmaceutica NV, priority 2020, dated 2023):

Legend:
[1] = test system: IL-17A-induced G-CSF production in human normal keratinocyte (NHK); test: NHK Assay: IL-17A-induced G-CSF production in human normal keratinocytes; type: cell-based; conditions: Homo sapiens, Keratinocyte, 24 h, adult normal human keratinocytes, IL-17A 5 ng/mL, simple average if tested more than once
Method in brief: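 G-CSF released by primary adult human keratinocytes after 24 h at 37° C was quantified by HTRF via standard curve to give IC50. Stimulus was 5 ng/mL IL-17A pre-mixed 1 h at rt with compound dilutions, in 5% FBS and 0.2% DMSO. Cell viability was assessed in parallel with CellTiter-Glo.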

[2] = molecular target: IL-17A(FLAG-Tagged): IL-17RA(His-Tagged) (Homo sapiens, UniProt Q16552, K93Q); test: IL-17A(FLAG-Tagged): IL-17RA(His-Tagged) Binding Disruption Eu-HTRF Assay; conditions: IL-17A/IL-17RA binding disruption, simple average if tested more than once
Method in brief: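 IC50 comes from a one-site competition fit of the HTRF 665/620 nm ratio. Compound dilutions (2-fold, 22 points) were held 1 h rt with FLAG-tagged IL-17A dimer, then His-tagged IL-17RA plus Eu-cryptate anti-FLAG and D2 anti-His antibodies were added for 2 h rt.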

UniProt Q16552, sequence (Q16552 with tags, fused parts or gaps K93Q): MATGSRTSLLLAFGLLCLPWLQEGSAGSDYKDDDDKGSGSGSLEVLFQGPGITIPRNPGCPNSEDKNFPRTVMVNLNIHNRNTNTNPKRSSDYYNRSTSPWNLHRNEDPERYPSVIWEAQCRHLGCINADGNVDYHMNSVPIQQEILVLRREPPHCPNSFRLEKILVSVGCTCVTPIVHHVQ

Nc1nonc1C(=O)N[C@H](c1cn2ncc([C@H](NC(=O)CCC(F)(F)F)C3CC3)cc2n1)C1CCC(F)(F)CC1 [Example 370, 4-Amino-N—((S)-(7-((R)-cyclopropyl(4,4,4-trifluorobutanamido)methyl)imidazo[1,2-b]pyridazin-2-yl)(4,4-difluorocyclohexyl)methyl)-1,2,5-oxadiazole-3-carboxamide]
IC50 [1]: 470 nM | IC50 [2]: 140 nM

CC(C)(O)c1nonc1C(=O)N[C@H](c1cn2ncc([C@H](NC(=O)CCC(F)(F)F)C3CC3)cc2n1)C1CCC(F)(F)CC1 [Example 371, N—((S)-(7-((R)-Cyclopropyl(4,4,4-trifluorobutanamido)methyl)imidazo[1,2-b]pyridazin-2-yl)(4,4-difluorocyclohexyl)methyl)-4-(2-hydroxypropan-2-yl)-1,2,5-oxadiazole-3-carboxamide]
IC50 [1]: 450 nM | IC50 [2]: 140 nM

COc1conc1C(=O)N[C@H](c1cn2ncc([C@H](NC(=O)CCC(F)(F)F)C3CC3)cc2n1)C1CCC(F)(F)CC1 [Example 372, N—((S)-(7-((R)-Cyclopropyl(4,4,4-trifluorobutanamido)methyl)imidazo[1,2-b]pyridazin-2-yl)(4,4-difluorocyclohexyl)methyl)-4-methoxyisoxazole-3-carboxamide]
IC50 [1]: 740 nM | IC50 [2]: 120 nM

CCOc1conc1C(=O)N[C@H](c1cn2ncc([C@H](NC(=O)CCC(F)(F)F)C3CC3)cc2n1)C1CCC(F)(F)CC1 [Example 373, N—((S)-(7-((R)-Cyclopropyl(4,4,4-trifluorobutanamido)methyl)imidazo[1,2-b]pyridazin-2-yl)(4,4-difluorocyclohexyl)methyl)-4-ethoxyisoxazole-3-carboxamide]
IC50 [1]: 240 nM | IC50 [2]: 62 nM

CC(C)Oc1conc1C(=O)N[C@H](c1cn2ncc([C@H](NC(=O)CCC(F)(F)F)C3CC3)cc2n1)C1CCC(F)(F)CC1 [Example 374, N—((S)-(7-((R)-Cyclopropyl(4,4,4-trifluorobutanamido)methyl)imidazo[1,2-b]pyridazin-2-yl)(4,4-difluorocyclohexyl)methyl)-4-isopropoxyisoxazole-3-carboxamide]
IC50 [1]: 240 nM | IC50 [2]: 46 nM

O=C(CCC(F)(F)F)N[C@@H](c1cnn2cc([C@@H](NC(=O)c3nocc3OCC(F)F)C3CCC(F)(F)CC3)nc2c1)C1CC1 [Example 375, N—((S)-(7-((R)-Cyclopropyl(4,4,4-trifluorobutanamido)methyl)imidazo[1,2-b]pyridazin-2-yl)(4,4-difluorocyclohexyl)methyl)-4-(2,2-difluoroethoxy)isoxazole-3-carboxamide]
IC50 [1]: 170 nM | IC50 [2]: 43 nM

O=C(CCC(F)(F)F)N[C@@H](c1cnn2cc([C@@H](NC(=O)c3nocc3OCCF)C3CCC(F)(F)CC3)nc2c1)C1CC1 [Example 376, N—((S)-(7-((R)-Cyclopropyl(4,4,4-trifluorobutanamido)methyl)imidazo[1,2-b]pyridazin-2-yl)(4,4-difluorocyclohexyl)methyl)-4-(2-fluoroethoxy)isoxazole-3-carboxamide]
IC50 [1]: 280 nM | IC50 [2]: 79 nM

O=C(CCC(F)(F)F)N[C@@H](c1cnn2cc([C@@H](NC(=O)c3nocc3CC(F)(F)F)C3CCC(F)(F)CC3)nc2c1)C1CC1 [Example 377, N—((S)-(7-((R)-Cyclopropyl(4,4,4-trifluorobutanamido)methyl)imidazo[1,2-b]pyridazin-2-yl)(4,4-difluorocyclohexyl)methyl)-4-(2,2,2-trifluoroethyl)isoxazole-3-carboxamide]
IC50 [1]: 85 nM | IC50 [2]: 60 nM

CC(C)c1conc1C(=O)N[C@H](c1cn2ncc([C@H](NC(=O)CCC(F)(F)F)C3CC3)cc2n1)C1CCC(F)(F)CC1 [Example 378, N—((S)-(7-((R)-Cyclopropyl(4,4,4-trifluorobutanamido)methyl)imidazo[1,2-b]pyridazin-2-yl)(4,4-difluorocyclohexyl)methyl)-4-isopropylisoxazole-3-carboxamide]
IC50 [1]: 95 nM | IC50 [2]: 55 nM
